In ChEMBL document CHEMBL6109153, “Development of Membrane-Targeting Osthole Derivatives Containing Pyridinium Quaternary Ammonium Moieties with Potent Anti-Methicillin-Resistant Staphylococcus aureus Properties” (J Med Chem, 2025):
The source made the active and inactive calls. No cut-off for these calls is given here.

Columns and labels:
[1] = Toxicity in KM mouse assessed as erythema on dorsal skin at 30 mg/kg, sc; type: organism-based; details: in vivo
[2] = Toxicity in KM mouse assessed as erythema on dorsal skin at <=20 mg/kg, sc; type: organism-based; details: in vivo
[3] = Toxicity in KM mouse assessed as abnormality in heart at 20 mg/kg, sc by H and E staining based analysis; type: organism-based; details: in vivo
[4] = Toxicity in KM mouse assessed as abnormality in liver at 20 mg/kg, sc by H and E staining based analysis; type: organism-based; details: in vivo
[5] = Toxicity in KM mouse assessed as abnormality in spleen at 20 mg/kg, sc by H and E staining based analysis; type: organism-based; details: in vivo
[6] = Toxicity in KM mouse assessed as abnormality in lung at 20 mg/kg, sc by H and E staining based analysis; type: organism-based; details: in vivo
[7] = Toxicity in KM mouse assessed as abnormality in kidney at 20 mg/kg, sc by H and E staining based analysis; type: organism-based; details: in vivo
[8] = Toxicity in BALB/c mouse assessed as mortality rate at 20 mg/kg, ip measured for 7 days; type: organism-based; details: in vivo, time 7 day, read-out: Activity
[9] = Toxicity in BALB/c mouse assessed as change in blood routine parameters at 10 mg/kg, ip measured for 7 days; type: organism-based; details: in vivo, 168 h, time 7 day
[10] = Toxicity in BALB/c mouse assessed as change in serum biochemical parameters at 10 mg/kg, ip measured for 7 days; type: organism-based; details: in vivo, 168 h, time 7 day
[11] = Toxicity in BALB/c mouse assessed as obvious damage in tissues of organs at 10 mg/kg, ip measured for 7 days by H and E staining based analysis; type: organism-based; details: in vivo, 168 h, time 7 day
[12] = Toxicity in BALB/c mouse assessed as lesions in tissues of organs at 10 mg/kg, ip measured for 7 days by H and E staining based analysis; type: organism-based; details: in vivo, 168 h, time 7 day
[13] = Toxicity in KM mouse assessed as abnormality in heart at 30 mg/kg, sc by H and E staining based analysis; type: organism-based; details: in vivo
[14] = Toxicity in KM mouse assessed as erythema on dorsal skin at <=30 mg/kg, sc; type: organism-based; details: in vivo
[15] = Toxicity in KM mouse assessed as adverse reactions at <=30 mg/kg, sc; type: organism-based; details: in vivo
[16] = Toxicity in KM mouse assessed as abnormality in liver at 30 mg/kg, sc by H and E staining based analysis; type: organism-based; details: in vivo
[17] = Toxicity in KM mouse assessed as abnormality in spleen at 30 mg/kg, sc by H and E staining based analysis; type: organism-based; details: in vivo
[18] = Toxicity in BALB/c mouse assessed as mortality rate at 40 mg/kg, ip measured for 7 days; type: organism-based; details: in vivo, time 7 day, read-out: Activity
[19] = Toxicity in BALB/c mouse assessed as change in blood routine parameters at 30 mg/kg, ip measured for 7 days; type: organism-based; details: in vivo, 168 h, time 7 day
[20] = Toxicity in BALB/c mouse assessed as obvious damage in tissues of organs at 30 mg/kg, ip measured for 7 days by H and E staining based analysis; type: organism-based; details: in vivo, 168 h, time 7 day
[21] = Toxicity in BALB/c mouse assessed as lesions in tissues of organs at 30 mg/kg, ip measured for 7 days by H and E staining based analysis; type: organism-based; details: in vivo, 168 h, time 7 day
[22] = tested on: Staphylococcus aureus; assay: Antibacterial activity against methicillin-resistant Staphylococcus aureus M11 infected in BALB/c mouse model of Sepsis assessed as vacuolar degeneration in liver cells at 10 to 20 mg/kg, ip measured after 48 hrs; type: functional, organism-based; details: dose 10-20 mg/kg
[23] = tested on: Staphylococcus aureus; assay: Antibacterial activity against methicillin-resistant Staphylococcus aureus M11 infected in BALB/c mouse model of Sepsis assessed as vacuolar degeneration in renal epithelial cells at 20 mg/kg, ip measured after 48 hrs; type: functional, organism-based
[24] = tested on: Staphylococcus aureus; assay: Antibacterial activity against methicillin-resistant Staphylococcus aureus M11 infected in BALB/c mouse model of Sepsis assessed as reduction in bacterial load in liver at 10 mg/kg, ip measured after 48 hrs; type: functional
[25] = tested on: Staphylococcus aureus; assay: Antibacterial activity against methicillin-resistant Staphylococcus aureus M11 infected in BALB/c mouse model of Sepsis assessed as reduction in bacterial load in spleen at 10 mg/kg, ip measured after 48 hrs; type: functional
[26] = tested on: Staphylococcus aureus; assay: Antibacterial activity against methicillin-resistant Staphylococcus aureus M11 infected in BALB/c mouse model of Sepsis assessed as reduction in bacterial load in spleen at 20 mg/kg, ip measured after 48 hrs; type: functional
[27] = tested on: Staphylococcus aureus; assay: Antibacterial activity against methicillin-resistant Staphylococcus aureus M11 infected in BALB/c mouse model of Sepsis assessed as reduction in bacterial load in kidney at 20 mg/kg, ip measured after 48 hrs; type: functional
[28] = tested on: Staphylococcus aureus; assay: Antibacterial activity against methicillin-resistant Staphylococcus aureus M11 infected in BALB/c mouse model of Sepsis assessed as reduction in serum IL-6 level administered intraperitoneally measured after 48 hrs; type: functional, organism-based; details: dose 10-20 mg/kg, route ip
[29] = Toxicity in BALB/c mouse model of Sepsis infected with methicillin-resistant Staphylococcus aureus M11 assessed as survival rate at 20 mg/kg, ip measured after 7 days; type: organism-based; details: in vivo, 168 h, time 7 day
[30] = Toxicity in BALB/c mouse model of Sepsis infected with methicillin-resistant Staphylococcus aureus M11 assessed as survival rate at 30 mg/kg, ip measured after 7 days; type: organism-based; details: in vivo, 168 h, time 7 day
[31] = Binding affinity to phosphatidylglycerol assessed as change in enthalpy by ITC analysis
[32] = Binding affinity to phosphatidylglycerol assessed as change in entropy by ITC analysis

CCCCCNC(=O)C[n+]1ccc(SCCCCCOc2ccc3ccc(=O)oc3c2CC=C(C)C)cc1.[Br-]
Activity [1]: Toxic | Activity [2]: Non-toxic | Activity [3]: Non-toxic | Activity [4]: Non-toxic | Activity [5]: Non-toxic | Activity [6]: Non-toxic | Activity [7]: Non-toxic | mortality at 168 h [8]: 83.3% | Activity [9]: Non-toxic | Activity [10]: Non-toxic | Activity [11]: Non-toxic | Activity [12]: Non-toxic

CC(C)=CCc1c(OCCCCSc2cc[n+](CC(=O)N(CC(C)C)CC(C)C)cc2)ccc2ccc(=O)oc12.[Br-]
Activity [13]: Non-toxic | Activity [14]: Non-toxic | Activity [15]: Non-toxic | Activity [16]: Non-toxic | Activity [17]: Non-toxic | mortality at 168 h [18]: 83.3% | Activity [19]: Non-toxic | Activity [20]: Non-toxic | Activity [21]: Non-toxic | Activity [22]: Active | Activity [23]: Active; Improvement Was Comparable To That In Vancomycin Group | Activity [24]: 1.84 log10CFU/ml | Activity [25]: 1.62 log10CFU/ml | Activity [26]: 4.33 log10CFU/ml | Activity [27]: 4.24 log10CFU/ml | Activity [28]: Dose-dependent-effect | Survival [29]: 66.7% | Survival [30]: 100% | deltaH [31]: -2.72 kcal/mol | deltaS [32]: 11.7 cal/mol/deg
